Results taken from patent US20100029773A1 (priority 2004, published 2010).

Legend:
[1] = molecular target: association between PrPC and PrPSc (recombinant mouse PrP binding to PrP-Sc aggregates from human CJD brain) (Mus musculus, UniProt P04925); parameters: species or system mouse rPrP; human PrP-Sc; settings: for classification in primary SIFT screening: primary hit = at least approx. 50% of the effect of 17 μM DOSPA on sum of bins in green sectors 1-5; for validation in SIFT dilution series (dose-dependent inhibition): six point dilution series 0.1-100 mM (so in the source)
association between PrPC and PrPSc (recombinant mouse PrP binding to PrP-Sc aggregates from human CJD brain), sequence (P04925 23-231 limits assumed): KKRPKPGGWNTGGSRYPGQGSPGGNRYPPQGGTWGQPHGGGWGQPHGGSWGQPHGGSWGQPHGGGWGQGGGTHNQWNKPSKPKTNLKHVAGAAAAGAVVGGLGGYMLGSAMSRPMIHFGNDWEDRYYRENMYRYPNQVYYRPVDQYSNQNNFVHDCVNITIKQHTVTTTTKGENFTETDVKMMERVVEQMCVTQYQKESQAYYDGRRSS

RML scrapie = settings: for prolongation of the median of the survival time versus vehicle (75% DMSO) group: daily intraperitoneal, days 102-115 post intracerebral RML infection, 125-500 nmol
[2] = system: PrPSc in scrapie-infected N2a (ScN2a) cells; experiment: cells; format: cell-based, mouse; settings: for EC50: Mus musculus, ScN2a, read-out: EC50 of clearance of PrPSc from the cells; for activity against PrPSc propagation in cell culture: ScN2a cells, first screening at 15 mM (so in the source), 2 days
[3] = system: PrPSc in scrapie-infected N2a (ScN2a) cells; settings: cell culture; cited from earlier work
[4] = system: PrP-Sc deposits in spleen; parameters: species or system C57Bl6 mice; settings: mouse, in vivo
α-synuclein = α-synuclein (Homo sapiens, UniProt P37840); experiment: DMSO-induced α-synuclein aggregation in vitro (fluorescence cross-correlation and SIFT analysis); format: biochemical; settings: 10 μM in 1% DMSO, 3-5 h

Compound	classification in primary SIFT screening [1]	validation in SIFT dilution series (dose-dependent inhibition) [1]	prolongation of the median of the survival time versus vehicle (75% DMSO) group (RML scrapie)	also measured
O=C(NN=Cc1ccc(Cl)cc1Cl)c1ccc(O)c(O)c1 [305E04, 3,4-dihydroxy-N′-(2,4-dichlorobenzylidene)-benzohydrazide]	primary SIFT hits	validated in SIFT dilution series		
O=C(NN=Cc1ccc2ccccc2c1)c1cccc(Cl)c1 [306H03, 3-chloro-N′-(naphthalen-2-ylmethylene)-benzohydrazide]	primary SIFT hits	validated in SIFT dilution series		
COc1ccc(C=NNC(=O)c2cccc(F)c2)cc1Br [309F02, 3-fluoro-N′-(3-bromo-4-methoxybenzylidene)-benzohydrazide]	primary SIFT hits	validated in SIFT dilution series	11.5 days	
COc1cc(C=NN=C(N)N)ccc1OCc1c(C)c(C)c(Br)c(C)c1C [313B02, 1-(4-(4-bromo-2,3,5,6-tetramethylbenzyloxy)-3-methoxybenzylidene)-2-diaminomethylene-hydrazine]	primary SIFT hits	validated in SIFT dilution series	no such prolongation	EC50 [2]: ~6 µM; toxic signs during treatment (RML scrapie; intraperitoneal 50 μl per day of 5 mM, reduced to 2.5 mM after day 4): toxic signs
O=C(NN=Cc1ccc2ccccc2c1)c1ccccc1O [297F03, 2-hydroxy-N′-(naphthalen-2-ylmethylene)-benzohydrazide]	primary SIFT hits	validated in SIFT dilution series		
CCCCCCCC/C=C\CCCCCCCCOCC(C[N+](C)(C)CCNC(=O)C(CCCNCCCN)NCCCN)OCCCCCCCC/C=C\CCCCCCCC.Cl.Cl.Cl.Cl.[Cl-] (centres unmarked) [DOSPA, reference compound]				SIFT signal in sectors of aggregates predominantly labelled with green rPrP ([1]; 17 μM): reduced SIFT signal; activity against PrPSc propagation in cell culture [2]: PrPSc is cleared from the infected cells; inhibition of PrPSc formation in scrapie-infected mouse cells (previous finding) [3]: inhibit PrPSc formation
O=C(NN=Cc1ccc2ccccc2c1)c1ccc(O)cc1O [301C09, 2,4-dihydroxy-N′-(naphthalen-2-ylmethylene)-benzohydrazide]	primary SIFT hits	validated in SIFT dilution series		
O=C(NN=Cc1ccc2ccccc2c1)c1ccc(O)c(O)c1 [293G02, 3,4-dihydroxy-N′-(naphthalen-2-ylmethylene)-benzohydrazide]	primary SIFT hits	validated in SIFT dilution series	9.5 days	EC50 [2]: ~2 µM; activity against PrPSc propagation in cell culture [2]: strongest cell culture activity; PrP-Sc deposits in spleen tissue [4]: no signs of PrP-Sc deposition could be detected; inhibition of formation of multimeric α-synuclein complexes (α-synuclein): inhibiting the formation of multimeric α-synuclein complexes to a large extent
